Test results taken from the NIST ThermoML archive (doi:10.1016/j.jct.2011.05.003).

Experiment: xn = mol fraction of the nth substance listed
Settings: Liquid; for speed of sound: 101 kPa, Sing-around technique in a fixed-path interferometer; for mass density: 101.3 kPa, Vibrating tube method

CCCNCCC [dipropylamine] + CCCCCC(C)=O
Settings	mass density [kg/m3]	speed of sound [m/s]
293.15 K, x2 = 0.0603	743.175	1213.9
293.15 K, x2 = 0.1045	746.717	1217.2
293.15 K, x2 = 0.1559	750.817	1221
293.15 K, x2 = 0.2013	754.413	1224.3
293.15 K, x2 = 0.2526	758.468	1228.1
293.15 K, x2 = 0.2936	761.7	1231.1
293.15 K, x2 = 0.3492	766.042	1235.2
293.15 K, x2 = 0.4579	774.494	1243
293.15 K, x2 = 0.493	777.204	1245.6
293.15 K, x2 = 0.5494	781.554	1249.6
293.15 K, x2 = 0.5894	784.624	1252.6
293.15 K, x2 = 0.6478	789.087	1256.9
293.15 K, x2 = 0.6896	792.266	1259.9
293.15 K, x2 = 0.7615	797.717	1265.1
293.15 K, x2 = 0.8025	800.833	1268
293.15 K, x2 = 0.8139	801.69	1268.8
293.15 K, x2 = 0.8993	808.079	1275
293.15 K, x2 = 0.948	811.684	1278.4
298.15 K, x2 = 0.0521	738.054	1191.8
298.15 K, x2 = 0.1048	742.273	1196
298.15 K, x2 = 0.1557	746.324	1199.8
298.15 K, x2 = 0.2	749.853	1203.2
298.15 K, x2 = 0.2526	754.005	1207.1
298.15 K, x2 = 0.2962	757.449	1210.4
298.15 K, x2 = 0.3436	761.173	1213.9
298.15 K, x2 = 0.385	764.422	1217
298.15 K, x2 = 0.4478	769.307	1221.7
298.15 K, x2 = 0.5427	776.662	1228.8
298.15 K, x2 = 0.6003	781.222	–
298.15 K, x2 = 0.6436	784.41	1236.4
298.15 K, x2 = 0.69	787.95	1239.8
298.15 K, x2 = 0.7418	791.892	1243.6
298.15 K, x2 = 0.8061	796.768	1248.5
298.15 K, x2 = 0.8548	800.432	1252
298.15 K, x2 = 0.8993	803.773	1255.3
298.15 K, x2 = 0.9528	807.724	1259.1
303.15 K, x2 = 0.0578	733.883	1172.1
303.15 K, x2 = 0.1054	737.733	1175.8
303.15 K, x2 = 0.1579	741.943	1179.9
303.15 K, x2 = 0.2005	745.356	1183.2
303.15 K, x2 = 0.2497	749.277	1187.1
303.15 K, x2 = 0.2951	752.865	1190.6
303.15 K, x2 = 0.3476	756.998	1194.7
303.15 K, x2 = 0.3856	759.993	1197.7
303.15 K, x2 = 0.4504	765.062	1202.6
303.15 K, x2 = 0.5442	772.346	1209.8
303.15 K, x2 = 0.5891	775.815	1213.4
303.15 K, x2 = 0.642	779.872	1217.3
303.15 K, x2 = 0.687	783.319	1220.8
303.15 K, x2 = 0.7413	787.465	1225
303.15 K, x2 = 0.7994	791.897	1229.4
303.15 K, x2 = 0.8564	796.191	1233.7
303.15 K, x2 = 0.8993	799.423	1236.9
303.15 K, x2 = 0.9497	803.188	1240

CCCCNCCCC [dibutylamine] + CCCCCC(C)=O
Settings	mass density [kg/m3]	speed of sound [m/s]
293.15 K, x2 = 0.064	762.405	1261.7
293.15 K, x2 = 0.1633	767.21	1263
293.15 K, x2 = 0.2061	769.239	1263.4
293.15 K, x2 = 0.2606	772.046	1264.5
293.15 K, x2 = 0.4493	781.952	1267.8
293.15 K, x2 = 0.5094	785.255	1269.1
293.15 K, x2 = 0.644	792.949	1272.1
293.15 K, x2 = 0.7511	799.387	1274.7
293.15 K, x2 = 0.9018	808.899	1278.8
298.15 K, x2 = 0.0624	758.343	1241.7
298.15 K, x2 = 0.1107	760.603	1242.2
298.15 K, x2 = 0.2097	765.511	1243.8
298.15 K, x2 = 0.3613	773.119	1246.3
298.15 K, x2 = 0.4049	775.426	1247.1
298.15 K, x2 = 0.4499	777.849	1248
298.15 K, x2 = 0.5496	783.354	1250.2
298.15 K, x2 = 0.6482	789.026	1252.5
298.15 K, x2 = 0.7509	795.166	1255.1
298.15 K, x2 = 0.7987	798.112	1256.4
298.15 K, x2 = 0.8986	804.449	1259.3
298.15 K, x2 = 0.9488	807.773	1261
303.15 K, x2 = 0.1122	756.507	1223.3
303.15 K, x2 = 0.1605	758.79	1223.9
303.15 K, x2 = 0.2587	763.614	1225.3
303.15 K, x2 = 0.3597	768.787	1227.2
303.15 K, x2 = 0.4096	771.421	1228.2
303.15 K, x2 = 0.4986	776.259	1230.1
303.15 K, x2 = 0.6478	784.736	1233.7
303.15 K, x2 = 0.747	790.673	1236.3
303.15 K, x2 = 0.7997	793.928	1237.9
303.15 K, x2 = 0.852	797.226	1239.4
303.15 K, x2 = 0.8984	800.193	1240.8
